We go through 14 compounds from patent publication US20190307818A1, “NOVEL ANTIMICROBIAL COMPOSITIONS AND METHODS OF USE” (priority 2016, published 2019).

The target of experiment [1] is T1, LasR (Pseudomonas aeruginosa, UniProt P25084).
T1 construct: expressed in transfected cells; host or cells: E. coli TOP10 carrying pBAD-A 6xHIS-lasR and pCS26 plasB-luxCDABE
The experiment is described as follows: Two plasmid E. coli LasR reporter (luciferase). It is filed as cell-based, P. aeruginosa. As to conditions: for remaining activity at 100 µM: read-out: Percent Activity (LasR reporter); for Percent Activity (LasR reporter): inhibitor at 100 μM, relative to wild-type (100%). The text has this:
(§1) A two plasmid E. coli reporter system was constructed, in which LasR or RhlR was expressed under an arabinose inducible promoter (e.g., LasR or RhlR was cloned into a pBAD-A vector and expressed upon addition of arabinose) in the presence of a LasR-dependent or RhlR-dependent promoter fused to luciferase (e.g., cloned into a pCS26 vector). Upon the addition of arabinose and in the presence of AI, LasR or RhlR were expressed, formed a complex with the cognate AI, underwent dimerization, and activated transcription of the reporter construct. All potential inhibitors were tested at 100 μM. The percent activity was reported relative to wild-type (100%).
(§2) A sample experimental protocol for the RhlR reporter (see, e.g., Table 5A2) or for the LasR reporter (see, e.g., Table 5A1).
(§3) A clean plate was filled with water, 70% ethanol, LB, and primed with cultured cells to ensure that initial dispensing led to the appropriate volume of cells being added to the wells. 20 μL of this solution was dispensed into appropriate wells in a 384-well plate that contained small molecule antagonists. 20 μL of this solution was dispensed into wells intended for a positive control that contain only DMSO. To the culture that was saved for negative control, arabinose was added to 0.1%. An equal volume of DMSO was added to the culture, relative to the amount of AI added to the other culture. 20 μL of culture was dispensed into wells intended for a negative control that contained only DMSO and no small molecule QS inhibitors. Plates were incubated at 30° C. in the plate shaker. Plates were read using a 384 LUM/OD 600 setting on the plate reader after 4 hours of induction.
For data analysis, the average and standard deviation for each of the control groups were determined. In a screen, for each data point, the number of standard deviations from the mean was determined to determine if the inhibitor was a “hit”. In a dose response curve, for each data point, the percent inhibition was determined: 1−(X/M), where X=single data point and M=is the mean of the AI only control group. The dose response curve was then plotted as a function of % inhibition (y) v. [inhibitor] on a log scale (x).

The subject of another experiment is LasR and RhlR. In words: Receptor specific reporter assays for LasR and RhlR activity (stated in words). It is filed as cell-based, P. aeruginosa.
Excerpt: wherein R may be H or OH, and two or more of the R substituents of a given compound are OH; R′ is H or OH; and R″ is H or OH. […] A variety of compounds were obtained and tested for activity (e.g., inhibition of receptor specific reporter assays for LasR and RhlR activity).
as §1
(In general: Reporter assays use an easily measured gene product as a stand-in for the process of interest.)

For another experiment, the target named is T2, RhlR (Pseudomonas aeruginosa, UniProt P54292).
T2 construct: expressed in transfected cells; host or cells: E. coli TOP10 carrying pBAD-A 6xHIS-rhlR and pCS26 prhlA-luxCDABE
T2 sequence (P54292 whole entry): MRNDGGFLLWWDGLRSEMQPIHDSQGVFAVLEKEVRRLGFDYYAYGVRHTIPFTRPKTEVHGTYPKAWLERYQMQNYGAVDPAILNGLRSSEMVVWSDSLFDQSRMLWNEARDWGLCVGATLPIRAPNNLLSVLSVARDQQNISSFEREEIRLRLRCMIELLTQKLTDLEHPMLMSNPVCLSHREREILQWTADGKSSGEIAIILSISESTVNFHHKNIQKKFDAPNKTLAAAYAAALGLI
In words: Two plasmid E. coli RhlR reporter (luciferase). The experiment is classed as cell-based, P. aeruginosa. As to conditions: for remaining activity at 100 µM: read-out: Percent Activity (RhlR reporter); for Percent Activity (RhlR reporter): inhibitor at 100 μM, relative to wild-type (100%).
Excerpt: as §1, §2
For the RhlR reporter, strains were re-streaked on LB+appropriate antibiotic before each experiment and grown overnight at 37° C. Three colonies were picked and a 3 mL overnight culture in LB+appropriate antibiotic was started. The culture was grown overnight at 37° C. The overnight culture was back-diluted 1:1000 into fresh LB+appropriate antibiotic in an appropriate volume, depending on the number of plates being screened. Each well in a 384 well plate received about 20 μL of culture. An additional 25 mL of culture was reserved for priming the plate filler. The culture was grown at 37° C. until OD600˜0.5, which took about 4 hrs. A 384-well plate was prepared. Stock concentrations of molecules (e.g., small molecule inhibitors) were 10 mM.
For a 10-point dose response for the RhlR reporter, a 1:3 dilution of molecule:DMSO (333 μL of stock molecule, 667 μL of DMSO using a 1 mL pipetteman) was used for accurate dispensing by the robot dispenser. Upon a prompt by the software, the appropriate concentration of each molecule was added. Each well was normalized with a DMSO standard to bring the total % volume of DMSO up to 1% using the robot. Plates were set aside with dispensed drugs until the cells were ready. Once the cells reached an OD600 of 0.5, an appropriate amount of cell culture was dispensed for screening into an Erlenmeyer flask. (Extra culture was saved for a negative control.) Arabinose was added to 0.1% final concentration (1:1000 dilution from stock solution), and AI was added to 10 μM (ED75) from a 10 mM stock. The components of the flask were mixed together by swirling. As mentioned previously, other concentrations of AIs may be suitable, e.g., the concentrations may be in the range of 2 uM to 100 uM, from 10 uM to 100 uM or from 2 uM to 10 uM. In some embodiments, 2 nM of 3-O—C12-HSL (for LasR) and 10 uM of C4-HSL (for RhlR) were used.
as §3
For data analysis, the average and standard deviation for each of the control groups were determined. In a screen, for each data point, the number of standard deviations from the mean was determined to determine if the inhibitor was a “hit”. In a dose response curve, for each data point, the percent inhibition was determined: 1−(X/M), where X=single data point and M=is the mean of the AI only control group. […]

Experiment [2] has as its system Wild-type P. aeruginosa pyocyanin production. The experiment is described as follows: Pyocyanin virulence factor production. As to conditions: 100 μM overnight, back diluted, grown 18 hrs with inhibitor. The experiment is classed as cell-based. The protocol: FIG. 6. QS inhibitors reduce the level of virulence factor production in P. aeruginosa. The ability of the small molecule inhibitors to reduce virulence factor production by monitoring pyocyanin production was assessed.
The ability of the small molecule QS inhibitors to reduce virulence factor production by monitoring production of pyocyanin as a representative virulence factor was assessed. Wild-type P. aeruginosa was incubated with the indicated molecules at 100 μM overnight, back diluted, and grown for 18 hrs in the presence of QS inhibitor.
By varying the concentration of QS inhibitors, dose dependence curves were generated.

The target of experiment [3] is T1, LasR. In words: 10-point autoinducer dose response on LasR reporter with QS inhibitor (competition). It is filed as cell-based, P. aeruginosa. As to conditions: inhibitor at 100 μM; increasing concentrations of AI. The protocol: FIG. 4. QS inhibitors bind non-competitively to LasR. A 10-point dose response curve with increasing concentrations of autoinducer 3-O—C12-HSL (AI) was generated for a variety of QS small molecule inhibitors. In this figure, curve C12 (filled circle) corresponds to the absence of inhibitor. […] Instead, the inhibitors bind elsewhere on LasR to prevent LasR-dependent transcription.
Using known molecular biology techniques, assays were performed to determine whether binding of the small molecule QS inhibitors and the AIs occurred by a competitive or by another inhibitory mechanism (see, e.g., FIG. 4).
Thus, a 10-point dose response curve with concentrations of AI ranging from 10 pM to 5 nM was generated for a variety of QS small molecule inhibitors. Curve C12 (dotted filled line) corresponds to the absence of inhibitor. […] Instead, the inhibitors bind elsewhere on LasR to prevent LasR-dependent transcription.

Molecules are shown by their SMILES.

T1 sequence (P25084 whole entry): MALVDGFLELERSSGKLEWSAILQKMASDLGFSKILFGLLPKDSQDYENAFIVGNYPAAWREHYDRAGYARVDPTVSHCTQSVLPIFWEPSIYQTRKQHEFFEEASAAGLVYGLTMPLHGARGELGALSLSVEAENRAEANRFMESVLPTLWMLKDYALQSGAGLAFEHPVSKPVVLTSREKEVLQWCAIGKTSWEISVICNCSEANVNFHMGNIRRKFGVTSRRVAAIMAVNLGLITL

For `O=C(CCc1ccc(O)cc1)c1c(O)cc(O)cc1O` [Molecule 1, Phloretin], the remaining activity at 100 µM on LasR [1] came out at 24.1%; at RhlR, 68.4%. Moreover, in the experiment on LasR and RhlR, the “activity (inhibition of receptor specific reporter assays for LasR and RhlR activity)” value is “inhibit both LasR and RhlR”. For the same compound, the pyocyanin production entry in experiment [2] is “inhibit pyocyanin to varying degrees”. For the same compound, at LasR [3], the “competition with autoinducer 3-O—C12-HSL for LasR” value (shortened to “competition”) is given as “did not compete”.
Regarding `O=c1cc(-c2ccccc2)oc2cc(O)cc(O)c12` [Molecule 3, Chrysin], the remaining activity at 100 µM on LasR [1] amounted to 53.1%; at RhlR it was 39.2%. Further, the “activity (inhibition of receptor specific reporter assays for LasR and RhlR activity)” value in the experiment on LasR and RhlR is “inhibit both LasR and RhlR”. Further, the pyocyanin production entry in experiment [2] is “inhibit pyocyanin to varying degrees”. In addition, on LasR [3], the “competition” value is listed as “did not compete”.
Turning to `O=C1CC(c2ccc(O)cc2)Oc2cc(O)cc(O)c21` (stereo not shown) [Molecule 4, Narigenin], in the experiment with LasR and RhlR, the “activity (inhibition of receptor specific reporter assays for LasR and RhlR activity)” value is “active”. Moreover, the pyocyanin production result in experiment [2] is on record as “inhibit pyocyanin to varying degrees”.
With `O=C1CC(c2ccc(O)cc2)Oc2cc(O)cc(O)c21` (stereo not shown) [Molecule 4], the remaining activity at 100 µM on LasR [1] amounted to 63.3%; at RhlR, 60.5%.
In the same order, the values of `O=c1cc(-c2ccc(O)cc2)oc2cc(O)cc(O)c12` [Molecule 43] are 82.4% and 84.5%.
For the compound `O=c1cc(-c2ccccc2)oc2cccc(O)c12` [Molecule 44], the “Percent Activity (LasR reporter)” value on LasR [1] is on record as “Inactive”. In addition, the “Percent Activity (RhlR reporter)” value at RhlR is recorded as “Inactive”.
For the compound `O=c1cc(-c2ccccc2)oc2cc(O)ccc12` [Molecule 45], the “Percent Activity (LasR reporter)” value on LasR [1] is “Inactive”. Also, the “Percent Activity (RhlR reporter)” value on RhlR is “Inactive”.
For `O=c1c(O)c(-c2ccc(O)c(O)c2)oc2cc(O)cc(O)c12` [Molecule 48, Quercetin], the results for the remaining activity at 100 µM on LasR [1] and at RhlR were 44.4% and 40.2%, respectively. The “activity (inhibition of receptor specific reporter assays for LasR and RhlR activity)” value in the experiment with LasR and RhlR was “inhibit both LasR and RhlR”. Moreover, the pyocyanin production entry in experiment [2] was “inhibit pyocyanin to varying degrees”. For the same compound, the “competition” value at LasR [3] is recorded as “did not compete”.
As to `COc1cc(OC)c2c(=O)cc(-c3ccccc3)oc2c1` [Molecule 49], the “Percent Activity (LasR reporter)” value at LasR [1] is listed as “Inactive”. The “Percent Activity (RhlR reporter)” value on RhlR is on record as “Inactive”.
With `O=c1cc(-c2ccccc2)oc2ccc(O)cc12` [Molecule 50], the “Percent Activity (LasR reporter)” value at LasR [1] is on record as “Inactive”. Further, the “Percent Activity (RhlR reporter)” value at RhlR is “Inactive”.
Consider `COc1cc(OC)c2c(=O)cc(-c3ccc(O)cc3)oc2c1` [Molecule 52], for which, at LasR [1], the “Percent Activity (LasR reporter)” value is given as “Inactive”. Besides, at RhlR, the “Percent Activity (RhlR reporter)” value is on record as “Inactive”.
For `O=c1cc(-c2ccccc2)oc2ccc(O)c(O)c12` [Molecule 53], the values for the remaining activity at 100 µM at LasR [1] and on RhlR were 16.7% and 31.8%, respectively.
For the compound `O=c1cc(-c2ccccc2)oc2c(O)c(O)ccc12` [Molecule 54], the remaining activity at 100 µM was 60.3% at LasR [1] and 54.5% on RhlR.
With `O=c1c(O)c(-c2ccccc2)oc2cc(O)cc(O)c12` [Molecule 55], the “Percent Activity (LasR reporter)” value on LasR [1] is listed as “Inactive”. Besides, the “Percent Activity (RhlR reporter)” value on RhlR is “Inactive”.
